Measured values taken from US20230115611A1, “TREATMENT OF PAIN AND VASOCONSTRICTION” (Aisa Pharma, Inc., priority 2020, published 2023).

Legend:
human Nav 1.7 = molecular target: T1, human Nav 1.7 (Homo sapiens, UniProt Q15858); assay: Nav 1.7 sodium channel inhibition, automated patch clamp (QPATCH II), two pulse voltage protocol; assay type: cell-based; conditions: for Mean % inhibition-closed state: closed state (P1) of Nav 1.7; for Mean % inhibition-closed state / Mean % inhibition-inactivated state: CHO cells, compound at/around Cmax concentration as in Table 4; for Mean % inhibition-inactivated state: inactivated state (P2) of Nav 1.7; for ranking of the compounds in terms of efficacy: Nav 1.7 inhibition at Cmax
T1 construct: expressed in transfected cells
Protocol: Chinese Hamster Ovary (CHO) cells stably expressing human Nav 1.7 were cultured according to the manufacturer's standard operating procedure (SOP) and enzymatically lifted into solution following Sophion's standard SOP.
Voltage protocol 1 (VP1): A voltage protocol designed to generate a current voltage relationship and to estimate the half inactivation potential (V1/2) was used. The first voltage protocol was used as quality control and the latter was used later in the experiment (see below).
Voltage protocol 2 (VP2): Two pulse voltage protocol. FIG. 2 depicts a two pulse voltage protocol. The line marked with an asterisk indicates the voltage that was applied to the cell. In the beginning, all channels were in the closed state (V=−120 mV). A depolarization step to V=10 mV (P1) activated all channels and produced the largest possible current. Next, cells were kept at the V1/2 value for 1 s. […] A second stimulation to V=−10 mV activated all channels that were in the closed state (50%). Compound effects were assessed at both P1 and P2. State dependent compounds will show a different degree of inhibition at the two different pulses. This protocol was repeated every 10 s to monitor compound effects on the channel.

[1] = oral dose 10 mg; reference value; cited from earlier work

T1 sequence (Q15858 whole entry): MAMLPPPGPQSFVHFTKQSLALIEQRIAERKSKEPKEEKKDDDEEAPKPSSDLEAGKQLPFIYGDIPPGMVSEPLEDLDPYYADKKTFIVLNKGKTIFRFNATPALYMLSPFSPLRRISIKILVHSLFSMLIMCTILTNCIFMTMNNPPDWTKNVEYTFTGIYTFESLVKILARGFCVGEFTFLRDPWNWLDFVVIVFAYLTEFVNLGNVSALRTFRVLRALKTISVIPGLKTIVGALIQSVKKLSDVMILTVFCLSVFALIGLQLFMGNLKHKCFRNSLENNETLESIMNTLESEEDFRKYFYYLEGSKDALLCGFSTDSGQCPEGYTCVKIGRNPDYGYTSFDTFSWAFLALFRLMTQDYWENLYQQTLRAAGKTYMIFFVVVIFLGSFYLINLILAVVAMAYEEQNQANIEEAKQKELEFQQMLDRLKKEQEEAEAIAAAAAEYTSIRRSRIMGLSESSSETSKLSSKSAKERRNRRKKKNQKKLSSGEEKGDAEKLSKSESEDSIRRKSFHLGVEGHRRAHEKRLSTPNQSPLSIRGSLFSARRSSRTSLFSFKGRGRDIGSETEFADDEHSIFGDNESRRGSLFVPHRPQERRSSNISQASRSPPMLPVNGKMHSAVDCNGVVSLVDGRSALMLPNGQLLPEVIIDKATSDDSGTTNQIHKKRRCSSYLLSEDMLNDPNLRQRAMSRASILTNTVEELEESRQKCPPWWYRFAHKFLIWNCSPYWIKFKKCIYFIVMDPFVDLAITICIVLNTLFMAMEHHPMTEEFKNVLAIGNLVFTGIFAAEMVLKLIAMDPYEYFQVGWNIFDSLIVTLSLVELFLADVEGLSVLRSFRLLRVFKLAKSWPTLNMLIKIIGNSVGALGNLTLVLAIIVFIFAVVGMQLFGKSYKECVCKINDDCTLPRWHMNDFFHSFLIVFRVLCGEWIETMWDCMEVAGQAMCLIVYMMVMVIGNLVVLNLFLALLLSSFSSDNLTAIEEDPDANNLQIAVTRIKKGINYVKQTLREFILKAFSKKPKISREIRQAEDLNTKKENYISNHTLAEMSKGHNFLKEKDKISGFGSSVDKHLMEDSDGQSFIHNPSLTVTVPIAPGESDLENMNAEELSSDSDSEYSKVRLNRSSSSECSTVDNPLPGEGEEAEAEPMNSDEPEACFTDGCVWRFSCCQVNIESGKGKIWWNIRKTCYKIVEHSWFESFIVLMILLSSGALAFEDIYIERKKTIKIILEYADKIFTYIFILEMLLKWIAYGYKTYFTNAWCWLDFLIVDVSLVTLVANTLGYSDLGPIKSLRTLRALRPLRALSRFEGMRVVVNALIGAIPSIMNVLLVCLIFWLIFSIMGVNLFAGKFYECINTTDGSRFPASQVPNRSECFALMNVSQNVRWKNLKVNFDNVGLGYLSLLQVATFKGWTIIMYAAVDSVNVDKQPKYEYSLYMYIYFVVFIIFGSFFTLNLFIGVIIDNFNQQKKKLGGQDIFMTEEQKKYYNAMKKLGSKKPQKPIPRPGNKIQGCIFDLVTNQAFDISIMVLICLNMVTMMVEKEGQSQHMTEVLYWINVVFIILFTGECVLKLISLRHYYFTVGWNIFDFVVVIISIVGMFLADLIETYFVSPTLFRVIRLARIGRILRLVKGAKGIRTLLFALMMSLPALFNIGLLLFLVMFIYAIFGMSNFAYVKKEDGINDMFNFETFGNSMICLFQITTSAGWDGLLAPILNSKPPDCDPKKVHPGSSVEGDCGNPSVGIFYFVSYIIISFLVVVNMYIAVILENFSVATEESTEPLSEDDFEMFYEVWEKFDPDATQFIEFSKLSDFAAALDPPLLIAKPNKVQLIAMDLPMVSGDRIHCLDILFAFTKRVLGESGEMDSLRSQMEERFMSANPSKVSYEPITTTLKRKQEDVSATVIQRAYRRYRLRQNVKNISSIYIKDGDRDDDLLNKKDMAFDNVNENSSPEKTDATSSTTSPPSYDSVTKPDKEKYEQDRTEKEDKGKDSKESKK

| Compound | Mean % inhibition-closed state (human Nav 1.7) [%] | Mean % inhibition-inactivated state (human Nav 1.7) [%] | Cmax [1] [ng/mL] | activity at the sodium channel subunit Nav 1.7 (human Nav 1.7) | ranking of the compounds in terms of efficacy (human Nav 1.7) | activity at Nav 1.7 compared with bupivacaine (human Nav 1.7; cilnidipine at 20 mg dose) | activity at Nav 1.7 compared with gabapentin (human Nav 1.7; cilnidipine at 20 mg dose) | activity at Nav 1.7 relative to amlodipine (human Nav 1.7; comparable clinical doses (amlodipine 5 mg to cilnidipine 10 mg and amlodipine 10 mg to cilnidipine 20 mg)) | higher relative inhibition of Nav 1.7 than amlodipine (human Nav 1.7; plasma concentrations achieved with 10 mg cilnidipine versus clinically comparable 5 mg amlodipine) [%] |
| --- | --- | --- | --- | --- | --- | --- | --- | --- | --- |
| C[S+](C)[O-] [DMSO] | −2.7 | 38.7 |  |  |  |  |  |  |  |
| CCOC(=O)C1=C(COCCN)NC(C)=C(C(=O)OC)C1c1ccccc1Cl (centres unmarked) [amlodipine] | −7.4 | 7.8 |  |  |  |  |  |  |  |
| CCCCN1CCCCC1C(=O)Nc1c(C)cccc1C (centres unmarked) [bupivacaine] | 2.5 | 20 |  |  |  |  |  |  |  |
| COCCOC(=O)C1=C(C)NC(C)=C(C(=O)OC/C=C/c2ccccc2)C1c1cccc([N+](=O)[O-])c1 (centres unmarked) [cilnidipine] | −6.7 | 18.5 | 5.9 ± 1.2 | clinically meaningful activity | gabapentin<amlodipine<cilnidipine nifedipine | appears to be greater than a sodium channel blocker and local anesthetic, bupivacaine | greater than gabapentin | about 5 × | 9.5 |
| NCC1(CC(=O)O)CCCCC1 [gabapentin] | −5.2 | 6.3 |  |  | gabapentin<amlodipine<cilnidipine nifedipine |  |  |  |  |
| CCN(CC)CC(=O)Nc1c(C)cccc1C [lidocaine] | 40.9 | 89.0 |  |  |  |  |  |  |  |
